Assay: API solubility assessment in common solvents
Type: physicochemical
Procedure: The solubility of the API was assessed in several common solvents systems to ensure obtaining the maximum API concentration for the spray drying process. […] Subsequently this binary solvent mixture was changed to the 2:1, methanol:acetone mixture due to long secondary drying times observed with the 2:1, methanol:THF system.

SMILES: C[C@]12CC[C@H](O)CC1=CCC1C2CC[C@]2(C)C(n3cnc4ccccc43)=CCC12 (stereo partly drawn) [Compound (1), 3-β-Hydroxy17-(1H-benzimidazol-1-yl)androsta-5,16-diene]
- API Solubility (%) (2:1 Acetone:Methanol): 4.16%
- API Solubility (%) (2:1 Methanol:Acetone): 7.28%
- API Solubility (%) (2:1 Methanol:Tetrahydrofuran): 16.64%
- API Solubility (%) (Acetone): 1.04%
- API Solubility (%) (Ethanol): 4.68%
- API Solubility (%) (Ethyl Acetate): 0%
- API Solubility (%) (Methanol): 4.16%
- API Solubility (%) (Tetrahydrofuran): 7.28%
